Experimental data as given in patent US5710170A, “Tri-aryl ethane derivatives as PDE IV inhibitors” (Merck Frosst Canada, Inc., priority 1996, dated 1998).

Biological target: T1, GST-Met 248 PDE IVa (GST fusion protein of the human recombinant phosphodiesterase IVa (met-248)) (Homo sapiens, UniProt P27815)
T1 construct: phosphodiesterase IVa (met-248); made in house; host or cells: Sf-9 insect cells (baculovirus)
Test: SPA based PDE activity assay: inhibition of human recombinant PDE IVa (GST-Met 248)
Format: biochemical
Conditions: 100 nM cAMP; purified GST fusion protein, baculovirus/Sf-9 expression system
Description: SPA Based PDE Activity Assay Protocol
Compounds which inhibit the hydrolysis of cAMP to AMP by the type-IV cAMP-specific phosphodiesterases were screened in 96-well plate format as follows:
In a 96 well-plate at 30° C. was added the test compound (dissolved in 2 ul DMSO), 188 ml of substrate buffer containing [2,8-^3 H] adenosine 3',5'-cyclic phosphate (cAMP, 100 nM to 50 μM), 10 mM MgCl2, 1 mM EDTA, 50 mM Tris, pH 7.5. The reaction was initiated by the addition of […] of human recombinant PDE-IV (the amount was controlled so that ~10% product was formed in 10 min. at 30° C.). The reaction was stopped after 10 min. by the addition of 1 mg of PDE-SPA beads (Amersham). The product AMP generated was quantified on a Microbeta 96-well plate counter. The signal in the absence of enzyme was defined as the background. 100% activity was defined as the signal detected in the presence of enzyme and DMSO with the background subtracted. Percentage of inhibition was calculated accordingly. IC50 value was approximated with a non-linear regression fit of the standard 4-parameter/multiple binding sites equation from a ten point titration.
IC50 values shown in Table 4 were determined with 100 nM cAMP using the purified GST fusion protein of the human recombinant phosphodiesterase IVa (met-248) produced from a baculovims/Sf-9 expression system.

T1 sequence (P27815 248-886 limits assumed): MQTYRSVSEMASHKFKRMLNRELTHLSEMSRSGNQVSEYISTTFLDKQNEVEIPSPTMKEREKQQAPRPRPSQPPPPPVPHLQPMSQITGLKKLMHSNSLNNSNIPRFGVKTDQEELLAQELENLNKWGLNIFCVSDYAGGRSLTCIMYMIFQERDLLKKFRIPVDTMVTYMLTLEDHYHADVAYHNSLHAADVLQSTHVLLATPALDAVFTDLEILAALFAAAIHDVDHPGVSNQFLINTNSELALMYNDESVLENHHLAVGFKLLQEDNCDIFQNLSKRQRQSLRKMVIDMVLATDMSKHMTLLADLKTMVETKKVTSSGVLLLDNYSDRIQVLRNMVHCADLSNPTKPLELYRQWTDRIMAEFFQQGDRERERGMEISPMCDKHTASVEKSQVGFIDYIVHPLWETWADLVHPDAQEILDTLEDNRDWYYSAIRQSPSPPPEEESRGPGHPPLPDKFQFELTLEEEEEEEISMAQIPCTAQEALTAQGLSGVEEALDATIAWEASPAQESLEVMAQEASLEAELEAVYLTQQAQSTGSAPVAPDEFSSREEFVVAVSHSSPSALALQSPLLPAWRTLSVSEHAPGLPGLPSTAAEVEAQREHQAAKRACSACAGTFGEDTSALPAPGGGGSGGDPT

Row | IC50 [nM] | Compound
1 | 1.5 | COc1ccc([C@H](Cc2ccncc2)c2ccc(CC(=O)NS(=O)(=O)c3ccccc3)cc2)cc1OC1CCCC1 [Example 5, N-{(R)-4-[1-(3-Cyclopentyloxy-4-methoxyphenyl)-2-(4-pyridyl)ethyl]phenylacetyl}benzenesulfonamide]
2 | 0.4 | COc1ccc([C@H](Cc2ccncc2)c2ccc(C(=O)NS(=O)(=O)c3ccccc3C)cc2)cc1OC1CCCC1 [Example 4, N-{(R)-4-[1-(3-Cyclopentyloxy-4-methoxyphenyl)-2-(4-pyridyl)ethyl]benzoyl}o-toluenesulfonamide]
3 | 0.2 | COc1ccc([C@H](Cc2ccncc2)c2ccc(C(O)(C(F)(F)F)C(F)(F)F)cc2)cc1OC1CCCC1 [Example 7, (R)-4-{2-(3-Cyclopentyloxy-4-methoxyphenyl)-2-[4-(1,1,1,3,3,3-hexafluoro-2-hydroxypropan-2-yl)phenyl]ethyl}pyridine]
4 | 1 | COc1ccc([C@H](Cc2ccncc2)c2ccc(C(=O)NS(=O)(=O)C(F)(F)F)cc2)cc1OC1CCCC1 [Example 3, N-{(R)-4-[1-(3-Cyclopentyloxy-4-methoxyphenyl)-2-(4-pyridyl)ethyl]benzoyl}trifluoromethanesulfonamide]
5 | 4 | COc1ccc([C@H](Cc2ccncc2)c2ccc(C(=O)NS(C)(=O)=O)cc2)cc1OC1CCCC1 [Example 1, N-{(R)-4-[1-(3-Cyclopentyloxy-4-methoxyphenyl)-2-(4-pyridyl)ethyl]benzoyl}methanesulfonamide]
6 | 0.7 | COc1ccc(C(Cc2ccncc2)c2ccc(S(=O)(=O)NC(=O)c3ccccc3C)cc2)cc1OC1CCCC1 (stereo not shown) [Example 8, N-(o-Toluoyl)-4-[1-(3-Cyclopentyloxy-4-methoxyphenyl)-2-(4-pyridyl)ethyl]benzenenesulfonamide]
7 | 0.5 | COc1ccc([C@H](Cc2ccncc2)c2ccc(C(=O)NS(=O)(=O)c3ccccc3)cc2)cc1OC1CCCC1 [Example 2, N-{(R)-4-[1-(3-Cyclopentyloxy-4-methoxyphenyl)-2-(4-pyridyl)ethyl]benzoyl}benzenesulfonamide]
8 | 0.8 | COc1ccc([C@H](Cc2ccncc2)c2ccc(CC(=O)NS(=O)(=O)C(F)(F)F)cc2)cc1OC1CCCC1 [Example 6, N-{(R)-4-[1-(3-Cyclopentyloxy-4-methoxyphenyl)-2-(4-pyridyl)ethyl]phenylacetyl}trifluoromethanesulfonamide]

Test system: not given
Test: not given
Conditions: used in asthma as a bronchodilator; cited from earlier work

Row | Compound | cardiovascular changes
9 | Cn1c(=O)c2[nH]cnc2n(C)c1=O [theophylline] | significant cardiovascular changes such as tachycardia

Test system: papillary muscle
Test: not given
Conditions: general statement; cited from earlier work

Row | Compound | direct inotropic effects of known PDE inhibitors
10 | COc1ccc(C2CNC(=O)C2)cc1OC1CCCC1 (stereo not shown) [rolipram] | do not have any direct effects
11 | Cc1[nH]c(=O)c(C#N)cc1-c1ccncc1 [milrinone] | positive chronotropic and inotropic effects

Test system: right atrial muscle
Test: not given
Conditions: right atria; general statement; cited from earlier work

Row | Compound | direct chronotropic effects of known PDE inhibitors
12 | COc1ccc(C2CNC(=O)C2)cc1OC1CCCC1 (stereo not shown) [rolipram] | do not have any direct effects
13 | Cc1[nH]c(=O)c(C#N)cc1-c1ccncc1 [milrinone] | positive chronotropic and inotropic effects
